Patent US11952611B2, “Methods and systems for detection of antibiotic resistance” (Laboratory Corporation of America Holdings, priority 2017, dated 2024)

Key:
Format in all cases: cell-based, Staphylococcus aureus
BAA-1720 MRSA = assay: MRSA detection from BD BBL CultureSwabs (Table 4)
Experimental: Bacterial strains were serially diluted and BD BBL CultureSwabs™ were inoculated with 50 ul of LB with approximately the target number of cells of 1000 CFU, 500 CFU, 250 CFU, 125 CFU, 63 CFU, 31 CFU, 16 CFU, or 8 CFU. Swabs were eluted with 1 mL modified Amies solution (included with commercially available Copan e-Swabs™). 135 μL of the eluted solution was added to each well. 15 μL of cefoxitin was added to the wells to reach a final concentration of 1.8 μg/mL, 3.6 μg/mL, or 5.4 μg/mL. The plate was then sealed and incubated at 37° C. for 2 hours. 10 μL of recombinant phage (1.6×10^8 pfu/mL) was added to each well. The plate was then re-sealed and incubated at 37° C. for an additional 2 hours. A master mix was made containing 15 μL 5× lysis buffer, 50 μL luciferase assay buffer, and 1 μL luciferase substrate per well. 65 μL of master mix was added to each well. Luminescence from the reactions were read on a GLOMAX® Navigator and relative luminal units (RLU) for each reaction were plotted and analyzed. RLU values three times greater than an established background RLU level for modified Amies solution (>1500 RLU) were considered positive. The results, shown in Table 4, indicate that a positive MRSA determination was made with 23 CFU in a well, originating from approximately 125 CFU on a swab when incubated with the previously established cut-off of 1.8 μg/mL. Positive results are highlighted in grey.

BAA-1720 - MRSA = assay: Table 6, MRSA alone; settings: MSSA detected CFU 0, MRSA 38
Experimental: Bacterial strains were serially diluted and transferred to a 96-well plate at 135 μL per well. 15 μL of cefoxitin was added to the wells to reach a final concentration of 1.8 μg/mL. The plate was then sealed and incubated at 37° C. for 2 hours or 3 hours. 10 μL of recombinant phage (1.6×10^8 pfu/mL) was added to each well. The plate was then re-sealed and incubated at 37° C. for an additional 1 or 2 hours. A master mix was made containing 15 μL 5× lysis buffer, 50 μL luciferase assay buffer, and 1 μL luciferase substrate per well. 65 μL of master mix was added to each well. Luminescence from the reactions was read on a GLOMAX® Navigator and relative luminal units (RLU) for each reaction were plotted and analyzed. RLU values three times greater than an established background RLU level for LB (>750 RLU) were considered positive. The results, shown in Table 6, indicate that samples with MRSA (38 CFU) can be distinguished from samples containing MSSA (up to 5088 CFU) using a 3-hour antibiotic/1-hour phage incubation protocol. Positive results are in bold. In Table 6, CFU values (318 CFU and 156 CFU) were experimentally validated by direct plating.

12600 MSSA = assay: Effect of duration of antibiotic and phage exposure on MSSA signal (Table 5)
Experimental: Bacterial strains were serially diluted and transferred to a 96-well plate at 135 μL per well. 15 μL of cefoxitin was added to the wells to reach a final concentration of 1.8 μg/mL, 3.6 μg/mL, or 5.4 μg/mL. The plate was then sealed and incubated at 37° C. for 2 hours or 3 hours. 10 μL of recombinant phage (1.6×10^8 pfu/mL) was added to each well. The plate was then re-sealed and incubated at 37° C. for an additional 1 or 2 hours. A master mix was made containing 15 μL 5× lysis buffer, 50 μL luciferase assay buffer, and 1 μL luciferase substrate per well. 65 μL of master mix was added to each well. Luminescence from the reactions was read on a GLOMAX® Navigator and relative luminal units (RLU) for each reaction were plotted and analyzed. RLU values three times greater than an established background RLU level for LB (>750 RLU) were considered positive. The results, shown in Table 5, indicate that the number of MSSA strains producing false-positives at the previously established cut-off of 1.8 μg/mL cefoxitin were reduced with a 3-hour antibiotic/1-hour phage protocol when compared to a 2-hour antibiotic/2-hour phage protocol. A false positive occurred at 541 CFU with the 2-hour antibiotic/2-hour phage protocol. Whereas, the 3-hour antibiotic/1-hour phage protocol produced false positives at 4331 CFU. Positive results are in bold. In Table 5, CFU values (541 CFU and 305 CFU) were experimentally validated by direct plating.

[1] = target swab CFU 8, detected CFU 3
[2] = target swab CFU 16, detected CFU 1
[3] = target swab CFU 31, detected CFU 4
[4] = target swab CFU 63, detected CFU 5
[5] = target swab CFU 125, detected CFU 23
[6] = target swab CFU 250, detected CFU 28
[7] = target swab CFU 500, detected CFU 31
[8] = target swab CFU 1000, detected CFU 76

CO[C@@]1(NC(=O)Cc2cccs2)C(=O)N2C(C(=O)O)=C(COC(N)=O)CS[C@@H]21 [Cefoxitin, cefoxitin]
Cefoxitin (RLU) 1.8 ug/mL (BAA-1720 MRSA; [1]): 615 RLU | Cefoxitin (RLU) 3.6 ug/mL (BAA-1720 MRSA; [1]): 513 RLU | Cefoxitin (RLU) 5.4 ug/mL (BAA-1720 MRSA; [1]): 789 RLU | Cefoxitin (RLU) 1.8 ug/mL (BAA-1720 MRSA; [2]): 1711 RLU | Cefoxitin (RLU) 3.6 ug/mL (BAA-1720 MRSA; [2]): 1623 RLU | Cefoxitin (RLU) 5.4 ug/mL (BAA-1720 MRSA; [2]): 1172 RLU | Cefoxitin (RLU) 1.8 ug/mL (BAA-1720 MRSA; [3]): 3572 RLU | Cefoxitin (RLU) 3.6 ug/mL (BAA-1720 MRSA; [3]): 1469 RLU | Cefoxitin (RLU) 5.4 ug/mL (BAA-1720 MRSA; [3]): 1438 RLU | Cefoxitin (RLU) 1.8 ug/mL (BAA-1720 MRSA; [4]): 900 RLU | Cefoxitin (RLU) 3.6 ug/mL (BAA-1720 MRSA; [4]): 1068 RLU | Cefoxitin (RLU) 5.4 ug/mL (BAA-1720 MRSA; [4]): 948 RLU | Cefoxitin (RLU) 1.8 ug/mL (BAA-1720 MRSA; [5]): 3630 RLU | Cefoxitin (RLU) 3.6 ug/mL (BAA-1720 MRSA; [5]): 4720 RLU | Cefoxitin (RLU) 5.4 ug/mL (BAA-1720 MRSA; [5]): 4597 RLU | Cefoxitin (RLU) 1.8 ug/mL (BAA-1720 MRSA; [6]): 6254 RLU | Cefoxitin (RLU) 3.6 ug/mL (BAA-1720 MRSA; [6]): 3843 RLU | Cefoxitin (RLU) 5.4 ug/mL (BAA-1720 MRSA; [6]): 3381 RLU | Cefoxitin (RLU) 1.8 ug/mL (BAA-1720 MRSA; [7]): 7571 RLU | Cefoxitin (RLU) 3.6 ug/mL (BAA-1720 MRSA; [7]): 7693 RLU | Cefoxitin (RLU) 5.4 ug/mL (BAA-1720 MRSA; [7]): 5263 RLU | Cefoxitin (RLU) 1.8 ug/mL (BAA-1720 MRSA; [8]): 13210 RLU | Cefoxitin (RLU) 3.6 ug/mL (BAA-1720 MRSA; [8]): 7193 RLU | Cefoxitin (RLU) 5.4 ug/mL (BAA-1720 MRSA; [8]): 6922 RLU | 2 HR AB + 2 HR Phage 1.8 ug/mL (BAA-1720 - MRSA): 4218 RLU | 3 HR AB + 1 HR Phage 1.8 ug/mL (BAA-1720 - MRSA): 3136 RLU | Cefoxitin (RLU) - 2 Hour Antibiotic + 2 Hour Phage 1.8 ug/mL (12600 MSSA; detected CFU 305): 600 RLU | Cefoxitin (RLU) - 2 Hour Antibiotic + 2 Hour Phage 3.6 ug/mL (12600 MSSA; detected CFU 305): 225 RLU | Cefoxitin (RLU) - 2 Hour Antibiotic + 2 Hour Phage 5.4 ug/mL (12600 MSSA; detected CFU 305): 244 RLU | Cefoxitin (RLU) - 3 Hour Antibiotic + 1 Hour Phage 1.8 ug/mL (12600 MSSA; detected CFU 305): 267 RLU | Cefoxitin (RLU) - 3 Hour Antibiotic + 1 Hour Phage 3.6 ug/mL (12600 MSSA; detected CFU 305): 198 RLU | Cefoxitin (RLU) - 3 Hour Antibiotic + 1 Hour Phage 5.4 ug/mL (12600 MSSA; detected CFU 305): 184 RLU | Cefoxitin (RLU) - 2 Hour Antibiotic + 2 Hour Phage 1.8 ug/mL (12600 MSSA; detected CFU 541): 1065 RLU | Cefoxitin (RLU) - 2 Hour Antibiotic + 2 Hour Phage 3.6 ug/mL (12600 MSSA; detected CFU 541): 224 RLU | Cefoxitin (RLU) - 2 Hour Antibiotic + 2 Hour Phage 5.4 ug/mL (12600 MSSA; detected CFU 541): 217 RLU | Cefoxitin (RLU) - 3 Hour Antibiotic + 1 Hour Phage 1.8 ug/mL (12600 MSSA; detected CFU 541): 258 RLU | Cefoxitin (RLU) - 3 Hour Antibiotic + 1 Hour Phage 3.6 ug/mL (12600 MSSA; detected CFU 541): 215 RLU | Cefoxitin (RLU) - 3 Hour Antibiotic + 1 Hour Phage 5.4 ug/mL (12600 MSSA; detected CFU 541): 171 RLU | Cefoxitin (RLU) - 2 Hour Antibiotic + 2 Hour Phage 1.8 ug/mL (12600 MSSA; detected CFU 1083): 1718 RLU | Cefoxitin (RLU) - 2 Hour Antibiotic + 2 Hour Phage 3.6 ug/mL (12600 MSSA; detected CFU 1083): 395 RLU | Cefoxitin (RLU) - 2 Hour Antibiotic + 2 Hour Phage 5.4 ug/mL (12600 MSSA; detected CFU 1083): 277 RLU | Cefoxitin (RLU) - 3 Hour Antibiotic + 1 Hour Phage 1.8 ug/mL (12600 MSSA; detected CFU 1083): 415 RLU | Cefoxitin (RLU) - 3 Hour Antibiotic + 1 Hour Phage 3.6 ug/mL (12600 MSSA; detected CFU 1083): 201 RLU | Cefoxitin (RLU) - 3 Hour Antibiotic + 1 Hour Phage 5.4 ug/mL (12600 MSSA; detected CFU 1083): 208 RLU | Cefoxitin (RLU) - 2 Hour Antibiotic + 2 Hour Phage 1.8 ug/mL (12600 MSSA; detected CFU 2165): 3046 RLU | Cefoxitin (RLU) - 2 Hour Antibiotic + 2 Hour Phage 3.6 ug/mL (12600 MSSA; detected CFU 2165): 424 RLU | Cefoxitin (RLU) - 2 Hour Antibiotic + 2 Hour Phage 5.4 ug/mL (12600 MSSA; detected CFU 2165): 331 RLU | Cefoxitin (RLU) - 3 Hour Antibiotic + 1 Hour Phage 1.8 ug/mL (12600 MSSA; detected CFU 2165): 604 RLU | Cefoxitin (RLU) - 3 Hour Antibiotic + 1 Hour Phage 3.6 ug/mL (12600 MSSA; detected CFU 2165): 218 RLU | Cefoxitin (RLU) - 3 Hour Antibiotic + 1 Hour Phage 5.4 ug/mL (12600 MSSA; detected CFU 2165): 202 RLU | Cefoxitin (RLU) - 2 Hour Antibiotic + 2 Hour Phage 1.8 ug/mL (12600 MSSA; detected CFU 4331): 5703 RLU | Cefoxitin (RLU) - 2 Hour Antibiotic + 2 Hour Phage 3.6 ug/mL (12600 MSSA; detected CFU 4331): 563 RLU | Cefoxitin (RLU) - 2 Hour Antibiotic + 2 Hour Phage 5.4 ug/mL (12600 MSSA; detected CFU 4331): 487 RLU | Cefoxitin (RLU) - 3 Hour Antibiotic + 1 Hour Phage 1.8 ug/mL (12600 MSSA; detected CFU 4331): 933 RLU | Cefoxitin (RLU) - 3 Hour Antibiotic + 1 Hour Phage 3.6 ug/mL (12600 MSSA; detected CFU 4331): 196 RLU | Cefoxitin (RLU) - 3 Hour Antibiotic + 1 Hour Phage 5.4 ug/mL (12600 MSSA; detected CFU 4331): 194 RLU | Cefoxitin (RLU) - 2 Hour Antibiotic + 2 Hour Phage 1.8 ug/mL (12600 MSSA; detected CFU 8662): 11570 RLU | Cefoxitin (RLU) - 2 Hour Antibiotic + 2 Hour Phage 3.6 ug/mL (12600 MSSA; detected CFU 8662): 1224 RLU | Cefoxitin (RLU) - 2 Hour Antibiotic + 2 Hour Phage 5.4 ug/mL (12600 MSSA; detected CFU 8662): 979 RLU | Cefoxitin (RLU) - 3 Hour Antibiotic + 1 Hour Phage 1.8 ug/mL (12600 MSSA; detected CFU 8662): 1563 RLU | Cefoxitin (RLU) - 3 Hour Antibiotic + 1 Hour Phage 3.6 ug/mL (12600 MSSA; detected CFU 8662): 247 RLU | Cefoxitin (RLU) - 3 Hour Antibiotic + 1 Hour Phage 5.4 ug/mL (12600 MSSA; detected CFU 8662): 224 RLU | Cefoxitin (RLU) - 2 Hour Antibiotic + 2 Hour Phage 1.8 ug/mL (12600 MSSA; detected CFU 17323): 22890 RLU | Cefoxitin (RLU) - 2 Hour Antibiotic + 2 Hour Phage 3.6 ug/mL (12600 MSSA; detected CFU 17323): 2071 RLU | Cefoxitin (RLU) - 2 Hour Antibiotic + 2 Hour Phage 5.4 ug/mL (12600 MSSA; detected CFU 17323): 1493 RLU | Cefoxitin (RLU) - 3 Hour Antibiotic + 1 Hour Phage 1.8 ug/mL (12600 MSSA; detected CFU 17323): 2695 RLU | Cefoxitin (RLU) - 3 Hour Antibiotic + 1 Hour Phage 3.6 ug/mL (12600 MSSA; detected CFU 17323): 255 RLU | Cefoxitin (RLU) - 3 Hour Antibiotic + 1 Hour Phage 5.4 ug/mL (12600 MSSA; detected CFU 17323): 246 RLU
